Laboratory results taken from ChEMBL document CHEMBL1201862, “PubChem BioAssay data set” (2004).
One block for each compound: values may come before it. Calls of active or inactive are those of the source.

Columns and labels:
[1] = ADAM10 protease inhibitors, dose response, selectivity assay for ADAM17 exosite inhibitor project, biochemical, FRET peptide substrate, recombinant human ADAM10 (AID 743259);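 note: ADAM10 enzyme cleaving a FRET peptide substrate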
[2] = target: T1, Disintegrin and metalloproteinase domain-containing protein 17 (Homo sapiens, UniProt P78536); assay: exosite inhibitors of ADAM17, dose response, biochemical (AID 743260)
[3] = ADAM10 inhibitors, peptide cleavage, dose response, biochemical, QFRET (AID 743254);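 note: ADAM10 enzyme with the DM2 quenched FRET peptide as substrate; EDANS fluorescence gain as the protease cuts the substrate; inhibitor potency against ADAM10 proteolytic activity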
[4] = target: T1, Disintegrin and metalloproteinase domain-containing protein 17; assay: ADAM17 protease inhibitors, dose response, counter-screen for ADAM10 exosite inhibitor project, biochemical, quenched FRET substrate (AID 743253)
HeLa = assay: HeLa cell cytotoxicity, dose response, cytotoxicity control, ATP luminescence, cherry-pick samples (AID 687004); format: functional, cell-based; details: Homo sapiens
[5] = target: T2, Oxysterols receptor LXR-beta (Homo sapiens, UniProt P55055); format: functional, cell-based;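 note: agonist activity at LXR measured by a cell-based luminescence readout across a dose range, run as a counterscreen for daf-12 agonists; HEK293 cells with Gal4-LXR fusion and GAL4-driven luciferase reporter; potency for activation of Gal4-LXR reporter so compounds are agonists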
T2 sequence (P55055 whole entry): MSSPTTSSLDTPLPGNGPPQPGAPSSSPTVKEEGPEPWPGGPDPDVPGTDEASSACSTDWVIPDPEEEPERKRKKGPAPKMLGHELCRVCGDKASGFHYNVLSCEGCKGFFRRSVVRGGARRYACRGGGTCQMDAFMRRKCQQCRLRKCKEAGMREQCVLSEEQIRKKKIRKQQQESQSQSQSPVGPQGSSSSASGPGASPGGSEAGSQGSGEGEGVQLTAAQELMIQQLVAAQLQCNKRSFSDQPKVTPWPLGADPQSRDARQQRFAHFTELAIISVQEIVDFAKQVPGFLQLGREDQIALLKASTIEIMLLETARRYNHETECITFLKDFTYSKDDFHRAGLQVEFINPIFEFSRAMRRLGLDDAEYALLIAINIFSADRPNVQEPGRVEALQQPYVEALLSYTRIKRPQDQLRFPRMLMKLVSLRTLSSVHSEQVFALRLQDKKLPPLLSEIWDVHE

[6] = target: Metabotropic glutamate receptor 3 (Rattus norvegicus, UniProt P31422); assay: mGlu3 NAM potency via calcium readout, dose response, mGlu3 NAM project, TREx293 cells, Galpha15, calcium flux (AID 651840); format: functional
[7] = T. cruzi growth inhibition in host cells, dose response, cell-based, plate reader, dry powder, set 2 (AID 652275); format: functional
cells [8] = format: functional, cell-based
cells [9] = format: functional, cell-based; remark: listed apart in the source

T1 sequence (P78536 whole entry, the tested form may be a part): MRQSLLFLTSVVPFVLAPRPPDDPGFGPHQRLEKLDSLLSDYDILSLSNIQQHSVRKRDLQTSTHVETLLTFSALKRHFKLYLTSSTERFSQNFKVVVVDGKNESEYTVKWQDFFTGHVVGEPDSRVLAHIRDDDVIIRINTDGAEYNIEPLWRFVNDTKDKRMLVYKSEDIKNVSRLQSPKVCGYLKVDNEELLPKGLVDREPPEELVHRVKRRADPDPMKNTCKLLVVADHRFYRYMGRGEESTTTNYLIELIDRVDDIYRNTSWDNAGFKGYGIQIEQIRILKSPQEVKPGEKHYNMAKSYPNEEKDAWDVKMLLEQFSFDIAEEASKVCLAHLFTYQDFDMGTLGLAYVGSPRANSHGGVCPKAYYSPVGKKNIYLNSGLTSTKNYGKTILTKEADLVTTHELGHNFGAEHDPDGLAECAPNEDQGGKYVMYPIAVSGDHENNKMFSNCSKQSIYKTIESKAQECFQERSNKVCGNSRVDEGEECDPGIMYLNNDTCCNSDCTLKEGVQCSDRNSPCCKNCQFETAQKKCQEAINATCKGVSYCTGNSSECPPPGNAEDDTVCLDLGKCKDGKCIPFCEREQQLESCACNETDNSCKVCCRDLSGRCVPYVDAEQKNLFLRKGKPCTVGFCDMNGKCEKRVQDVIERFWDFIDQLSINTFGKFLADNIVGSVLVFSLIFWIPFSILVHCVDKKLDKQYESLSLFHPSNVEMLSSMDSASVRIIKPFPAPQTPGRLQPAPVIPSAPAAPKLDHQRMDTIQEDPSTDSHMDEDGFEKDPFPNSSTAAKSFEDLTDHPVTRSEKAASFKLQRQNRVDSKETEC
Sequence of Metabotropic glutamate receptor 3 (P31422 whole entry): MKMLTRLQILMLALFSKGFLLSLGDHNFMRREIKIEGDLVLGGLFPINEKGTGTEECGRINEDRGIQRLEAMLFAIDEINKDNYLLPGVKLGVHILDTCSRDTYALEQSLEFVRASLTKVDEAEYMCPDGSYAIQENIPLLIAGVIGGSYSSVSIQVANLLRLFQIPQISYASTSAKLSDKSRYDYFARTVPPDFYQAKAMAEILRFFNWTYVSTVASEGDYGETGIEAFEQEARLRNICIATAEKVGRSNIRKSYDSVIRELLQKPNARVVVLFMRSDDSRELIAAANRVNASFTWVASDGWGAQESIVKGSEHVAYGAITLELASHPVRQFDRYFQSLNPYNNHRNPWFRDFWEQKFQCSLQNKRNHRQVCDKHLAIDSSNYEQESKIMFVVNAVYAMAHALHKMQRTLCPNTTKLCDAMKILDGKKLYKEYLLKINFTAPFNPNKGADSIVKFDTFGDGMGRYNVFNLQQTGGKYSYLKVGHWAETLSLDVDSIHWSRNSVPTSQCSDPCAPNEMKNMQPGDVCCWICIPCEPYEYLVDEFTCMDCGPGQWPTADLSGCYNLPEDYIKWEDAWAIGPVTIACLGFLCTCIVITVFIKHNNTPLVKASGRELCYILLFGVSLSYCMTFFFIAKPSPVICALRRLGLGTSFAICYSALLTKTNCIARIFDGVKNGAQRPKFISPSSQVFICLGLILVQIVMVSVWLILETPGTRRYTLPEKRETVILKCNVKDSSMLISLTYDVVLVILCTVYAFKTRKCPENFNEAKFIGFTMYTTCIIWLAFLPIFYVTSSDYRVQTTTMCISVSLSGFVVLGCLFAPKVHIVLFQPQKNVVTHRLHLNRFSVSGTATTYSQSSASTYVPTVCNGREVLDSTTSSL

SMILES: NC(=O)[C@H]1CC2(CC(c3cccc(NC(=O)CC(c4ccccc4)c4ccccc4)c3)=NO2)CN1C(=O)CC(c1ccccc1)c1ccccc1 (some centres undefined)
IC50 [3]: > 69.5 µM (inactive)
IC50 [4]: > 69.5 µM (inactive)

SMILES: CC(O)(c1ccc(F)c(F)c1)c1nc(-c2cccc(C(F)(F)F)c2)cs1 (centres undefined)
IC50 [3]: 7.59 µM (active)
IC50 [4]: > 69.5 µM (inactive)

SMILES: CC(C)NC(=O)Nc1ccc2c(c1)C(=O)N([C@@H](C)CO)C[C@H](C)[C@@H](CN(C)Cc1ccc3c(c1)OCO3)OCCCC[C@@H](C)O2
AC50 (HeLa): 19.5 µM (active)

SMILES: CC(C)N1C[C@H](CN(C)Cc2ccc(Oc3ccccc3)cc2)Oc2c(NC(=O)c3ccncc3)cccc2C1=O
AC50 [7]: 0.00193 µM (active)

SMILES: CN(C)C(=O)c1cccc(-c2ccc([C@H]3[C@H](CO)N4CCCCN(Cc5cccnc5)C[C@@H]34)cc2)c1
AC50 [7]: 0.481 µM (active)

SMILES: Oc1ccc(/C=N/CCc2ccccc2)cc1
EC50 (cells [8]): > 29.9 µM (inactive)
IC50 (cells [9]): > 29.9 µM (inactive)

More lines, main results first:

IC50 [2]: > 69.5 µM (inactive)
SMILES: COc1ccccc1NC(=O)Cn1nc(-c2ccc(Cl)cc2)c2ccccc2c1=O
IC50 [1]: 16.3 µM (inactive)

EC50 [5]: > 67.5 µM (inactive)
SMILES: Cc1ccc(N/N=C(\C#N)C(=N)N2CCCCCC2)cc1

IC50 [6]: 0.783 µM
SMILES: C=CCC1(O)CCCN(C(=O)c2ccc(C#Cc3ccc(OC)cc3)cc2)C1 (centres undefined)

IC50 [6]: 2.01 µM
SMILES: COc1ccc(C#Cc2ccc(C(=O)N3CCCC(C)(C)C3)cc2)cc1
